# In the supplement of paper PMC13380429:
# ± gives the standard deviation of the averaged measurements.
# Assays:
# Conditions in all cases: 72 h
# HepG2 [1] = experiment: cell viability relative to DMSO; higher = less toxic
# Vero E6 [2] = experiment: as above
# Caco-2 [3] = experiment: as above
# Calu-3 [4] = experiment: as above
# U2OS [5] = experiment: as above
# HepG2 [6] = experiment: relative viability EC50 (midpoint between 100% and the lowest measured viability); higher = less toxic
# Vero E6 [7] = experiment: as above
# Caco-2 [8] = experiment: as above
# Calu-3 [9] = experiment: as above
# U2OS [10] = experiment: as above
# HepG2 [11] = experiment: drug sensitivity score (DSS) for viability; higher = more toxic; extreme values may be limits of the assay
# Vero E6 [12] = experiment: as above
# Caco-2 [13] = experiment: as above
# Calu-3 [14] = experiment: as above
# U2OS [15] = experiment: as above
Compound,cell viability (HepG2 [1]; 1 nM) [%],cell viability (HepG2 [1]; 10 nM) [%],cell viability (HepG2 [1]; 100 nM) [%],cell viability (HepG2 [1]; 1000 nM) [%],cell viability (HepG2 [1]; 10000 nM) [%],cell viability (Vero E6 [2]; 1 nM) [%],cell viability (Vero E6 [2]; 10 nM) [%],cell viability (Vero E6 [2]; 100 nM) [%],cell viability (Vero E6 [2]; 1000 nM) [%],cell viability (Vero E6 [2]; 10000 nM) [%],cell viability (Caco-2 [3]; 1 nM) [%],cell viability (Caco-2 [3]; 10 nM) [%],cell viability (Caco-2 [3]; 100 nM) [%],cell viability (Caco-2 [3]; 1000 nM) [%],cell viability (Caco-2 [3]; 10000 nM) [%],cell viability (Calu-3 [4]; 1 nM) [%],cell viability (Calu-3 [4]; 10 nM) [%],cell viability (Calu-3 [4]; 100 nM) [%],cell viability (Calu-3 [4]; 1000 nM) [%],cell viability (Calu-3 [4]; 10000 nM) [%],cell viability (U2OS [5]; 1 nM) [%],cell viability (U2OS [5]; 10 nM) [%],cell viability (U2OS [5]; 100 nM) [%],cell viability (U2OS [5]; 1000 nM) [%],cell viability (U2OS [5]; 10000 nM) [%],relative viability EC50 (HepG2 [6]) [µM],relative viability EC50 (Vero E6 [7]) [µM],relative viability EC50 (Caco-2 [8]) [µM],relative viability EC50 (Calu-3 [9]) [µM],relative viability EC50 (U2OS [10]) [µM],drug sensitivity score (HepG2 [11]),drug sensitivity score (Vero E6 [12]),drug sensitivity score (Caco-2 [13]),drug sensitivity score (Calu-3 [14]),drug sensitivity score (U2OS [15])
OC[C@H]1O[C@H](O[C@H]2O[C@H](CO)[C@@H](O)[C@H](O)[C@H]2O)[C@H](O)[C@@H](O)[C@@H]1O [cabaletta],130,110,115,110,98.2,110,94.3,104,105,99.5,112,112,83.7,97.7,94.5,96.2,105,97.2,109,96.3,99.1,103,104,107,106,> 10,> 10,> 10,> 10,> 10,0,0,0,0,0
CCOc1nc2cccc(C(=O)O)c2n1Cc1ccc(-c2ccccc2-c2nnn[nH]2)cc1 [candesartan],103,100,106,98,94.5,102,97.6,95.3,92.7,108,104,97.5,106,90.1,92.5,91.1,95.7,100,99.7,105,94.2,96.8,94.4,99.3,102,> 10,> 10,> 10,> 10,> 10,0,0,0,0,0
O=C1c2ccccc2C(=O)C1c1ccc(Cl)cc1 [chlorindione],96.8,108,106,111,122,95.1,95.2,90.3,93.6,108,94.5,84.3,104,95.2,106,103,103,99.5,106,99.7,99.5,93.8,105,97.4,95.4,> 10,> 10,> 10,> 10,> 10,0,0,0,0,0
C=Cc1c(C)c2cc3nc(c(CC(=O)O)c4[n-]c(cc5nc(cc1[n-]2)C(C)=C5CC)c(C)c4C(=O)O)[C@@H](CCC(=O)O)[C@@H]3C.[Cu+2] [chlorophyllin-copper],89.6,104,82.3,105,88.8,103,97.3,95.2,102,85.9,88.2,84,98.7,95.8,89.4,88.2,85.4,104,104,75.4,94.9,97.2,98.7,91.9,88.6,> 10,> 10,> 10,> 10,> 10,0,0.1,0,0.7,0
Oc1ccnc2cc(Cl)ccc12 [chloroxoquinoline],104,96.3,94.6,92.4,105,102,90.9,101,96.1,99.5,98.7,96.3,94.7,90.8,89.9,87.2,95.4,92.9,105,92.2,98.5,99.7,95.5,103,95.5,> 10,> 10,> 10,> 10,> 10,0,0,0,0,0
Cc1cc(O)cc(C)c1Cl [chloroxylenol],90.6,92,105,104,94,101,101,96.9,99.1,104,99.8,101,93.2,92,89.3,104,108,94.7,105,95.5,102,106,97.3,99.8,95.4,> 10,> 10,> 10,> 10,> 10,0,0,0.3,0,0
CN(C)CC[C@@H](c1ccc(Cl)cc1)c1ccccn1 [chlorphenamine],102 ± 2,113.5 ± 0.71,96.4 ± 2.8,94.7 ± 2.3,99.2 ± 10,103 ± 6.3,103 ± 6.7,99.1 ± 1.3,95.4 ± 3.7,96.8 ± 3.2,102 ± 3.8,100 ± 2.9,102,98.8 ± 3.8,93.05 ± 0.35,97.8 ± 1.2,95.2 ± 1.8,93.3 ± 3.8,97.7 ± 3.3,96.4 ± 14,98 ± 3.7,97.8 ± 0.71,94.7 ± 1.7,95.2 ± 2.4,93 ± 2.6,> 10,> 10,> 10,> 10,> 10,0,0,0,0,0
